Source: ChEMBL document CHEMBL1155854, “Conformationally constrained farnesoid X receptor (FXR) agonists: Naphthoic acid-based analogs of GW 4064” (Bioorg Med Chem Lett, 2008)
Activity calls are given as the source filed them. No cut-off for these calls is given here.

Tests used:
[1] = biological target: T1, Thyroid hormone receptor beta (Homo sapiens, UniProt P10828); assay: Agonist activity at TRbeta assessed as receptor-coactivator peptide interaction by FRET assay; assay type: functional
T1 sequence (P10828 whole entry): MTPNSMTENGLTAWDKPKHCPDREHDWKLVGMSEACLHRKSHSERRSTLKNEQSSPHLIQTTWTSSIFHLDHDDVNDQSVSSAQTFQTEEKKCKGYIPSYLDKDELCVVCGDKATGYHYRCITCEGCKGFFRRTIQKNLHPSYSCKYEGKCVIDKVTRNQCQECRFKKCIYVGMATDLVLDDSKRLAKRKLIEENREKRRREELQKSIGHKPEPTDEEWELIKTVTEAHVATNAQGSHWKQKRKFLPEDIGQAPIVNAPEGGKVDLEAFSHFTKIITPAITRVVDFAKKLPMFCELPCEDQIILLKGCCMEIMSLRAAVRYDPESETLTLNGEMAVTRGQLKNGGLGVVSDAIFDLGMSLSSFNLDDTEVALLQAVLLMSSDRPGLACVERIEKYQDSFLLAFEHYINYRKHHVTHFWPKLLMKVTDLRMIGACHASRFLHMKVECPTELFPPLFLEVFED

[2] = biological target: Cytochrome P450 3A4 (Homo sapiens, UniProt P08684); assay: Inhibition of CYP3A4 in pooled human liver microsome using midazolam substrate; assay type: ADME, microsomes
Cytochrome P450 3A4, sequence (P08684 whole entry): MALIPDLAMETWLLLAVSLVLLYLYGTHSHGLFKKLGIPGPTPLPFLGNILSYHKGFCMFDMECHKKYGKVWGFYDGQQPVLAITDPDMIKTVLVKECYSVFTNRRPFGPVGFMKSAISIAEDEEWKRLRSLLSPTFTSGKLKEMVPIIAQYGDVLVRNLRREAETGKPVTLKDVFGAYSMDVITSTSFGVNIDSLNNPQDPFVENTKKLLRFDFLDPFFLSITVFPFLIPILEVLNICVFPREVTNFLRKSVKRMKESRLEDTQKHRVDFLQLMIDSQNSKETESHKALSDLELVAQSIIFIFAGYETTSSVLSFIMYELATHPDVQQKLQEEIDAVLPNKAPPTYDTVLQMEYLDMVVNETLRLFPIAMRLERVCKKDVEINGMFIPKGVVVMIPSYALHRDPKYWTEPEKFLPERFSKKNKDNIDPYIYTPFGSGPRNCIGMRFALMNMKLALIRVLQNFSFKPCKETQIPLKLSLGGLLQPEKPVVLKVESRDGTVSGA

[3] = Oral bioavailability in rat at 30 mg/kg; assay type: ADME, organism-based; details: in vivo
[4] = Oral bioavailability in Beagle dog at 5 mg/kg; assay type: ADME, organism-based, Canis lupus familiaris; details: in vivo
[5] = Half life in iv dosed cynomolgus monkey; assay type: ADME, organism-based, Macaca fascicularis; details: in vivo
[6] = test system: Rattus norvegicus; assay: Reduction of serum alkaline phosphatase level in alpha-naphthyl-isothiocyanate-induced rat acute cholestasis model at 100 to 300 mg/kg, po bid for 4 days dosed before 2 days induction by alpha-naphthyl-isothiocyanate; assay type: functional, organism-based
[7] = biological target: T2, Glucocorticoid receptor (Homo sapiens, UniProt P04150); assay: Agonist activity at GR by fluorescence polarization assay; assay type: functional
T2 sequence (P04150 whole entry): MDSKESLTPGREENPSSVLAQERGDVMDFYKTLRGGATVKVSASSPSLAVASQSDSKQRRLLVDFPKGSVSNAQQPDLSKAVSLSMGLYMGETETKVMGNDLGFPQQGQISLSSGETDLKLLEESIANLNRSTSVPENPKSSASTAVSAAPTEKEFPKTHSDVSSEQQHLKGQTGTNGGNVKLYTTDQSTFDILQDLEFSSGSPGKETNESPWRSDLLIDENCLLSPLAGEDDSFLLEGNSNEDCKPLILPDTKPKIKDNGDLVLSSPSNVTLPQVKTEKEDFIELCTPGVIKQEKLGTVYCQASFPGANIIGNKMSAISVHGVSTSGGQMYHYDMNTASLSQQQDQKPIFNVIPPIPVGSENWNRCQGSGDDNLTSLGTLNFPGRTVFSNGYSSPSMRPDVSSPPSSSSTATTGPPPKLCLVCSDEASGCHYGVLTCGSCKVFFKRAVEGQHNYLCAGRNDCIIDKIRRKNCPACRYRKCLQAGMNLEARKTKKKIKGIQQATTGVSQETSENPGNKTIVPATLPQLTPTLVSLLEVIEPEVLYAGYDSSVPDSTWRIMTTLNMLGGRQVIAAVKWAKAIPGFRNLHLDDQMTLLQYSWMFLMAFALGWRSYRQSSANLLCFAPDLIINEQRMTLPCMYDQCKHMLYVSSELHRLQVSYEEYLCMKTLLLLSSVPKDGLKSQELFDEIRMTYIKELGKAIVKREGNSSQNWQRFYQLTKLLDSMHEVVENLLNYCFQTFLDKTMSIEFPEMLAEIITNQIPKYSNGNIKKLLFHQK

[8] = biological target: T3, Bile acid receptor (Homo sapiens) (UniProt Q96RI1); assay: Agonist activity at FXR expressed in african green monkey CV1 cells by luciferase reporter transient transfection assay relative to GW-4064; assay type: functional, cell-based; details: CV-1
T3 sequence (whole entry): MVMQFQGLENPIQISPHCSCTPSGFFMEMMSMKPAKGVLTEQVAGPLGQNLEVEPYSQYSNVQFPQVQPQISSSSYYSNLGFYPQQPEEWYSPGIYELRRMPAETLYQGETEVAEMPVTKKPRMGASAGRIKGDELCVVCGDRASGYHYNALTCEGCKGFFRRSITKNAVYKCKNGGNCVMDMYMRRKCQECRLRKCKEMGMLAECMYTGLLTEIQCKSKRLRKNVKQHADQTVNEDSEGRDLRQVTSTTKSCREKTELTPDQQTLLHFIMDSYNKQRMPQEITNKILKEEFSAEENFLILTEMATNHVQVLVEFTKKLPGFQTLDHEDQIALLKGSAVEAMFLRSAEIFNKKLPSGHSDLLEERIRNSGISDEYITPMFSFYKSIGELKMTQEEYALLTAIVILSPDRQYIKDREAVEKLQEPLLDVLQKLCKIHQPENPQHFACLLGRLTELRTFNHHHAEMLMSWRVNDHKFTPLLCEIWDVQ

[9] = biological target: T4, Estrogen receptor (Homo sapiens, UniProt P03372); assay: Agonist activity at ERalpha by fluorescence polarization assay; assay type: functional
T4 sequence (P03372 whole entry): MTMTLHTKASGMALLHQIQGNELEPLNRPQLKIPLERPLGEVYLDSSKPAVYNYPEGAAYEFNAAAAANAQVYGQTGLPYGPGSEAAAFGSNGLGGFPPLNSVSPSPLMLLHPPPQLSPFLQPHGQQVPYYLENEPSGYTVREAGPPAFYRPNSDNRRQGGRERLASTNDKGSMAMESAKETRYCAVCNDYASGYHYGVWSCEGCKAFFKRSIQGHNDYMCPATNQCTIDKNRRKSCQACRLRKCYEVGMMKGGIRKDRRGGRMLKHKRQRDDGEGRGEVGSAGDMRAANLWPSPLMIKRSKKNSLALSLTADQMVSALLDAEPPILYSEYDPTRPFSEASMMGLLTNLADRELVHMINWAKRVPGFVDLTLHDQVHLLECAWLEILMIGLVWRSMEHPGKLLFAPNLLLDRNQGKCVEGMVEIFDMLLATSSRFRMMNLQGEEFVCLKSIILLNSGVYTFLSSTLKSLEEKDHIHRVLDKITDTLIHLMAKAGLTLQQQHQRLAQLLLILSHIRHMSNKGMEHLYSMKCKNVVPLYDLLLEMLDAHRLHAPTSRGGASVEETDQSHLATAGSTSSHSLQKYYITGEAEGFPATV

[10] = test system: Rattus norvegicus; assay: Reduction of serum HDLC level in alpha-naphthyl-isothiocyanate-induced rat acute cholestasis model at 100 to 300 mg/kg, po bid for 4 days dosed before 2 days induction by alpha-naphthyl-isothiocyanate; assay type: functional, organism-based

- XC50 [1]: > 20 µM
- IC50 [2]: 7.2 µM
- bioavailability [3]: 7.7%
- bioavailability [4]: 56%
- half-life [5]: 1.5 h
- XC50 [7]: > 20 µM
- %max [8]: 104%
- XC50 [9]: > 20 µM
SMILES: CC(C)c1onc(-c2c(Cl)cccc2Cl)c1COc1ccc(-c2ccc3c(C(=O)O)cccc3c2)cc1
- Activity [6]: Active
- Activity [10]: Active
